Measurements as given in US20210069173A1, “PREPARATION OF (-)-COCAINE HYDROCHLORIDE” (Cody Laboratories, Inc., priority 2018, published 2021).
Counter-ions that a name gives are not always drawn.

Assays:
[1] = Distribution, metabolism and excretion of cocaine
[2] = cited from earlier work
mice = settings: cited from earlier work
mucous membranes = test: Topical anesthesia of mucous membranes by pledget administration; type: in vivo, human; settings: applied to mucous membranes by pledget, depends on concentration, vascularity
Method: When applied to mucous membranes by pledget administration, topical anesthesia develops rapidly and persists for 30 minutes or longer depending on the concentration of cocaine HCl solution used, the dose, and on the vascularity of the tissue.

experimental animals = settings: cited from earlier work

COC(=O)[C@H]1[C@@H](OC(=O)c2ccccc2)C[C@@H]2CC[C@H]1N2C [Cocaine, methyl (1R,2R,3S,5S)-3-(benzoyloxy)-8-methyl-8-azabicyclo[3.2.1]octane-2-carboxylate]
fraction eliminated unchanged in the urine ([1]; human, urine): < 5%
metabolism by hydrolysis to ecgonine ([2]; by carboxylesterase-2): minimally metabolized
fraction metabolized by hydrolysis to benzoylecgonine ([2]; by hepatic carboxylesterase-1): 40-45%
fraction metabolized by hydrolysis to ecgonine methyl ester ([2]; by plasma butyrylcholinesterase and hepatic carboxylesterase-2): 40-45%
fraction N-demethylated to norcocaine ([2]; by the CYP3A4 enzyme system): 5-10%
volume of distribution ([2]; in vivo): approximately 2 L/kg
potency in producing increases in locomotor activity (mice; cocaine versus cocaethylene): more potent than cocaethylene

COC(=O)[C@H]1[C@@H](OC(=O)c2ccccc2)C[C@@H]2CC[C@H]1N2C [cocaine HCl, methyl (1R,2R,3S,5S)-3-(benzoyloxy)-8-methyl-8-azabicyclo[3.2.1]octane-2-carboxylate hydrochloride]
persistence of topical anesthesia (mucous membranes): ≥ 30 min

CCOC(=O)[C@H]1[C@@H](OC(=O)c2ccccc2)C[C@@H]2CC[C@H]1N2C [ethyl cocaine, ethyl (1R,2R,3S,5S)-3-(benzoyloxy)-8-methyl-8-azabicyclo[3.2.1]octane-2-carboxylate]
elimination half-life (comparative) (experimental animals): longer elimination half-life
volume of distribution (comparative) (experimental animals): larger volume of distribution
toxicity and arrhythmogenicity (experimental animals; versus cocaine or ethanol alone): more toxic and arrhythmogenic than either substance alone
potency in producing convulsions (mice; cocaine versus cocaethylene): equipotent
potency in producing lethality (mice; ethyl cocaine versus cocaine): more potent than cocaine

COC(=O)[C@H]1[C@@H](OC(=O)c2ccccc2)C[C@@H]2CC[C@H]1N2 [norcocaine]
total systemic exposure relative to cocaine ([1]; in vivo): less than one percent
